According to the NIST ThermoML archive (doi:10.1021/acs.jced.5b00880):
± gives the expanded uncertainty stated by the source.

Settings: Crystal; DTA

Normal melting temperature: 152.4 ± 1.1 °C
Structure (SMILES): O=C(O)CCCCC(=O)O [1,6-hexanedioic acid]
